Several values for one entry are separate records, joined by “and”; a condition that tells them apart may be missing. Identical values can stand only once. Like-named read-outs stand apart in the source and are kept apart here.
Key:
[1] = tested on: H2228 EML4-ALK cancer cell line; experiment: Antiproliferative activity, MTT assay, H2228 monolayer; assay type: cell-based, human; conditions: read-out: H2228 IC50 EML4-ALK
[2] = tested on: BaF3/NMP-ALK cancer cell line; experiment: Antiproliferative activity, CCK-8 assay, BaF3/ALK cells; assay type: cell-based, mouse; conditions: read-out: BaF3/NMP-ALK IC50
[3] = tested on: L02 cells; experiment: Toxicity assay on human normal cells, L02; assay type: cell-based; conditions: L02, read-out: IC50 L02
[4] = tested on: EA.hy926 cells; experiment: Toxicity assay on human normal cells, EA.hy926; assay type: cell-based; conditions: for IC50: Homo sapiens
[5] = tested on: H2228 xenograft; experiment: In vivo anti-tumor evaluation, H2228 xenograft in nude mice; conditions: 20 mg kg^-1, oral, 14 days
[6] = tested on: HK-2 cells; experiment: Toxicity assay on human normal cells, HK-2; assay type: cell-based
[7] = MTT, 48 h, mean ± SD, at least three experiments
[8] = CCK-8, 48 h, at least three experiments

Q: “4-Chloro-N2-(2-ethoxy-5-methyl-4-(1-methylpiperidin-4-yl)phenyl)-N5-(2-(ethylsulfinyl)-4-fluorophenyl)pyrimidine-2,5-diamine [Compound 18g]” was tested. Which IC50 [1, 7] did it give?
A: 33 ± 7 nM

Q: And the IC50 [2, 8]?
A: 29 ± 12 nM

Q: What does the source list for “4-Chloro-N5-(2-(ethylsulfinyl)-4-fluorophenyl)-N2-(2-isopropoxy-5-methyl-4-(piperidin-4-yl)phenyl)pyrimidine-2,5-diamine [Compound 18j]”?
A: IC50 [1, 7]: 63 ± 8 nM; IC50 [2, 8]: 56 ± 4 nM

Q: What does the source list for “4-Chloro-N5-(2-(ethylsulfinyl)phenyl)-N2-(2-methoxy-5-methyl-4-(1-methylpiperidin-4-yl)phenyl)pyrimidine-2,5-diamine [Compound 18e]”?
A: IC50 [1, 7]: 44 ± 12 nM; IC50 [2, 8]: 33 ± 10 nM

Q: With “4-Chloro-N5-(2-(ethylsulfinyl)-4-fluorophenyl)-N2-(2-isopropoxy-5-methyl-4-(1-methylpiperidin-4-yl)phenyl)pyrimidine-2,5-diamine [Compound 18L]” as the compound, how does the IC50 [1, 7] read?
A: 31 ± 10 nM

Q: And the IC50 [2, 8]?
A: 28 ± 8 nM

Q: For “4-Chloro-N5-(4-chloro-2-(ethylsulfinyl)phenyl)-N2-(2-isopropoxy-5-methyl-4-(1-methylpiperidin-4-yl)phenyl)pyrimidine-2,5-diamine [Compound 18i]”, which IC50 [1, 7] is on record?
A: 81 ± 28 nM

Q: And the IC50 [2, 8]?
A: 77 ± 15 nM

Q: How did the IC50 [1, 7] turn out when “4-Chloro-N5-(2-(ethylsulfinyl)-4-fluorophenyl)-N2-(2-methoxy-5-methyl-4-(piperidin-4-yl)phenyl)pyrimidine-2,5-diamine [Compound 18h]” was run?
A: 58 ± 16 nM

Q: What about the IC50 [2, 8] of the same compound?
A: 47 ± 15 nM

Q: Which results are given for “4-Chloro-N5-(2-(ethylsulfinyl)-4-fluorophenyl)-N2-(2-methoxy-5-methyl-4-(1-methylpiperidin-4-yl)phenyl)pyrimidine-2,5-diamine [Compound 18f]”?
A: IC50 [1, 7]: 37 ± 11 nM; IC50 [2, 8]: 31 ± 13 nM

Q: With `Cc1cc(Nc2ncc(Cl)c(Nc3ccccc3S(=O)(=O)C(C)C)n2)c(OC(C)C)cc1C1CCNCC1` [Ceritinib, ceritinib] as the compound, how does the IC50 ([1]; Homo sapiens, NCI-H2228, 48 h) read?
A: 25 ± 10 nM

Q: And the IC50 [3]?
A: 3420 ± 560 nM

Q: And the EA.hy926 cell morphology ([4]; 48 h, 1 μM (Fig. 9))?
A: abnormal morphology changes

Q: And the IC50 ([4]; EA.hy 926, read-out: IC50 EA.hy926 (active))?
A: 3420 ± 560 nM

Q: What about the IC50 ([4]; EA.hy 926, read-out: IC50 EA.hy926 (quiescent)) of the same compound?
A: 2440 ± 340 nM

Q: And the “Tumor growth inhibitory rate (TGI)” value [5]?
A: 72.8% and 72.0%

Q: What about the “Tumor volume changes (inhibitory effects)” value [5] of the same compound?
A: 131.00 mm^3

Q: What about the IC50 ([2]; Mus musculus, BaF3, 48 h) of the same compound?
A: 18 ± 1 nM

Q: And the HK-2 cell morphology ([6]; 48 h, 1 μM (Fig. 9))?
A: abnormal morphology changes

Q: What about the IC50 ([6]; Homo sapiens, HK-2, read-out: IC50 HK-2) of the same compound?
A: 1440 ± 250 nM

Q: Which results are given for “4-Chloro-N5-(2-(ethylsulfinyl)phenyl)-N2-(2-methoxy-4-(1-methylpiperidin-4-yl)phenyl)pyrimidine-2,5-diamine [Compound 18k]”?
A: IC50 [1, 7]: 57 ± 6 nM; IC50 [2, 8]: 24 ± 5 nM

— publication PMC11140455 (RSC Advances, 2024)
